According to article PMC5441580, “GPR40 partial agonist MK-2305 lower fasting glucose in the Goto Kakizaki rat via suppression of endogenous glucose production” (PLoS ONE, 2017):
“And” between values parts separate entries of the source, which are not always exact repeats. Equal entries are not always repeated.

How the values were obtained:
Rat PPARγ = molecular target: T1, Rat PPARγ (Rattus norvegicus, UniProt O88275); assay: cell-based nuclear receptor profiling (Indigo Biosciences), PPARγ
T1 sequence (O88275 238-505 limits assumed): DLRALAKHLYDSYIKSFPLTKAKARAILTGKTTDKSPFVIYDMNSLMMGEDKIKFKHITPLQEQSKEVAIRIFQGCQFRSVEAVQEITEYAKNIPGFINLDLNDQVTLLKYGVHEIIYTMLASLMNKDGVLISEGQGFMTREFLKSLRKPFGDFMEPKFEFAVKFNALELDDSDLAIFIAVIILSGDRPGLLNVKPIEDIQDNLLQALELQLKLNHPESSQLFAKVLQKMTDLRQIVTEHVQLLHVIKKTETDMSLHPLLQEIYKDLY
Experimental: Rat PPARα, PPARδ, and PPARγ activities were determined by Indigo Biosciences (State College, PA) cell-based nuclear receptor profiling service.

human GPR41 (FFAR3) = molecular target: T2, human GPR41 (FFAR3) (Homo sapiens, UniProt O14843); assay: cAMP (LANCE) functional assay, CHO cells expressing human GPR41; assay type: cell-based
T2 construct: expressed in transfected cells
T2 sequence (O14843 1-346): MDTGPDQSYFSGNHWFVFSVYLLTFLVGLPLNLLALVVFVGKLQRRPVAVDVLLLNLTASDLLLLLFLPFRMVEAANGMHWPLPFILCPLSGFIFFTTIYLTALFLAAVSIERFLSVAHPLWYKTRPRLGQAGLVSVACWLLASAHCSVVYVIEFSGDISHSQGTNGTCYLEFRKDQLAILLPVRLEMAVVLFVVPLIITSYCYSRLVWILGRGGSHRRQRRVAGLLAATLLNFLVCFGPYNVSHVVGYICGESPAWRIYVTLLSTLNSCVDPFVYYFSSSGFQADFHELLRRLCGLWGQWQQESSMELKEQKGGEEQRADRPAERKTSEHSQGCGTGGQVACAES
Experimental: (§1) CHO cells stably expressing human GPR41 or human GPR43 were harvested with non-enzymatic cell dissociation buffer and re-suspended in LANCE stimulation buffer (prepared as described by PE) at 0.25 million cells per ml (3.3 million cells per ml for GPR43) and 6 μl was then plated into each well of a 384-well Culturplate. Compounds were serially diluted in DMSO and then diluted further into stimulation buffer containing 2 μM forskolin (Sigma) at 2-times final concentration in the assay. 6 μl of the diluted compounds were then added to the assay plate and the plate incubated for 60 mins at room temperature. After the incubation, 12 μl of detection reagent (prepared as described by PE) was added to each well and the plates incubated one additional hour at room temperature. After the final incubation, the plates were read in a Perkin Elmer Envision reader with a method designed for Time-resolved fluorescence (TRF) assays (340 nm excitation, dual emission 615 and 655 nm). For each assay, a cAMP standard curve plate was also included. All fluorescent readings (using the 655/615 nm ratio) were converted to cAMP concentration using the cAMP standard curve and the percent activity at each concentration of test compound was determined using 0% activation (basal activity) determined in those wells containing DMSO alone, while 100% activity was determined in wells containing a concentration of agonist know to maximally activate the receptor.

human GPR43 (FFAR2) = molecular target: T3, human GPR43 (FFAR2) (Homo sapiens, UniProt O15552); assay: cAMP (LANCE) functional assay, CHO cells expressing human GPR43; assay type: cell-based
T3 construct: expressed in transfected cells
T3 sequence (O15552 1-330): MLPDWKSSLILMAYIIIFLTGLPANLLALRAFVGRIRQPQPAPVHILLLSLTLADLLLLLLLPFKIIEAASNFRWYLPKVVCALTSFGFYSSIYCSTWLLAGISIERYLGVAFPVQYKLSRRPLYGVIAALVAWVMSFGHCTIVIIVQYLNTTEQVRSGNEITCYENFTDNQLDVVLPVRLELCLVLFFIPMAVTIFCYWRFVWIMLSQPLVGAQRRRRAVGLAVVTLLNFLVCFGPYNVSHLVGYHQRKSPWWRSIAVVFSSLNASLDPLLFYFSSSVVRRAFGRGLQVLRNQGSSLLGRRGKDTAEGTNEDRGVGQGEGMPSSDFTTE
Experimental: as §1

[1] = test system: perfused db/db mouse livers; assay: isolated perfused liver study, 13C NMR, [2-13C] pyruvate
Experimental: To evaluate whether GPR40 partial agonist treatment produced a direct effect on hepatic glucose production, we performed isolated perfused liver studies with ^13C NMR spectroscopy in which GPR40 agonists were dosed directly to the liver ex vivo. Mouse livers were chosen instead of rat livers due to size restrictions of the perfused liver apparatus. […] A detailed description of the perfused liver technique can be found elsewhere. Briefly, db/db mice were anesthetized (Nembutal IP, 100 mg/kg), the portal vein was cannulated and tied off, and the liver was excised and perfused with a pre-oxygenated Krebs-bicarbonate buffered solution. The liver was then placed into a 20 mm NMR tube and the gluconeogenic substrate [2-^13C] pyruvate (10 mM) was added to the perfusate plus either MK-2305 (10 μM) or vehicle (0.1% DMSO). […] These NMR signals were then converted to absolute units (μmoles) by comparison to ^13C NMR spectra of standard solutions acquired under identical conditions. Additional correction factors were included for ^13C-glycogen and ^13C-glucose to account for the fact that position 2 in pyruvate can end up at position 1, 2, 5, or 6 in glucose/glycogen due to the fumarase and triose phosphate isomerase reactions. The slope of each signal versus time was then used to calculate the following fluxes: glucose production, glycogen synthesis, and lactate production.

[2] = perfused db/db mouse livers, 10 mg/kg, title: 10 M, individual livers

O=C1NC(=O)C(C2CCOc3cc(Oc4ccc(C(F)(F)F)cc4Cl)ccc32)S1 (centres unmarked) [MK-2305]
EC50 (Rat PPARγ): > 10 µM
% Activation (Rat PPARγ; @ 10 μM): 3.1 @ 10 μM % and 3.1%
% Effect (Rat PPARγ; Dose 0.309 nM): -0.11%
% Effect (Rat PPARγ; Dose 0.981 nM): -0.11%
% Effect (Rat PPARγ; Dose 3.11 nM): -0.19%
% Effect (Rat PPARγ; Dose 9.85 nM): -0.3%
% Effect (Rat PPARγ; Dose 31.2 nM): -0.25%
% Effect (Rat PPARγ; Dose 99 nM): -0.14%
% Effect (Rat PPARγ; Dose 314 nM): -0.37%
% Effect (Rat PPARγ; Dose 995 nM): -0.13%
% Effect (Rat PPARγ; Dose 3155 nM): 0.6%
% Effect (Rat PPARγ; Dose 10000 nM): 3.1%
% Activation (human GPR41 (FFAR3); @ 25 μM): 85 @ 25 μM % and 85%
% Effect (human GPR41 (FFAR3); Dose 1.267 nM): -32%
% Effect (human GPR41 (FFAR3); Dose 3.801 nM): 0.634%
% Effect (human GPR41 (FFAR3); Dose 34.208 nM): -2.75%
% Effect (human GPR41 (FFAR3); Dose 102.624 nM): -4.7%
% Effect (human GPR41 (FFAR3); Dose 307.872 nM): -36%
% Effect (human GPR41 (FFAR3); Dose 923.617 nM): -18%
% Effect (human GPR41 (FFAR3); Dose 2770.85 nM): -0.143%
% Effect (human GPR41 (FFAR3); Dose 8312.55 nM): 50%
% Effect (human GPR41 (FFAR3); Dose 24938 nM): 85%
EC50 (human GPR41 (FFAR3); cAMP, CHO cells expressing human GPR41): 12.7 µM
% Activation (human GPR43 (FFAR2); @ 25 μM): 61 @ 25 μM % and 61%
% Effect (human GPR43 (FFAR2); Dose 1.267 nM): -23%
% Effect (human GPR43 (FFAR2); Dose 3.801 nM): -37%
% Effect (human GPR43 (FFAR2); Dose 34.208 nM): -32%
% Effect (human GPR43 (FFAR2); Dose 102.624 nM): 25%
% Effect (human GPR43 (FFAR2); Dose 307.872 nM): -78%
% Effect (human GPR43 (FFAR2); Dose 923.617 nM): -34%
% Effect (human GPR43 (FFAR2); Dose 2770.85 nM): -39%
% Effect (human GPR43 (FFAR2); Dose 8312.55 nM): -23%
% Effect (human GPR43 (FFAR2); Dose 24938 nM): 61%
EC50 (human GPR43 (FFAR2); cAMP, CHO cells expressing human GPR43): > 25 µM
effect on conversion of [2-13C] pyruvate to 13C-glucose, 13C-glycogen, or 13C-lactate ([1]; 10 μM, perfused db/db mouse liver): no effects
Flux, conversion of [2-13C] pyruvate to 13C-glycogen [1, 2]: 0.1121 umoles pyr /g liver*min and 0.1693 umoles pyr /g liver*min and 0.0485 umoles pyr /g liver*min and 0.07554 umoles pyr /g liver*min
Flux, conversion of [2-13C] pyruvate to 13C-lactate [1, 2]: 1.604 umoles pyr /g liver*min and 1.499 umoles pyr /g liver*min and 1.317 umoles pyr /g liver*min and 0.5832 umoles pyr /g liver*min
Flux, conversion of [2-13C] pyruvate to 13C-glucose ([1]; perfused db/db mouse livers, MK-2305 10 μM in perfusate, individual livers): 0.9558 umoles pyr /g liver*min and 1.314 umoles pyr /g liver*min and 1.287 umoles pyr /g liver*min and 0.8408 umoles pyr /g liver*min
